According to patent US20230203023A1, “SALT AND CRYSTAL FORMS OF GLP-1R AGONISTS AND USES THEREOF” (QILU REGOR THERAPEUTICS INC., priority 2020, published 2023):
Structures can show the parent of a compound that is named as a salt. Marks after values point to notes of the source that are not given here.

How the values were obtained:
Format in all cases: physicochemical
[1] = Kinetic solubility test in water and bio-relevant media (SGF, FaSSIF, FeSSIF); settings: for S: solubility: 37° C.; for Purity (%), area percentage of API: for reference only (suspensions); for FC: form change: residual solids by XRPD; for pH: supernatant; for Solubility in SGF, FaSSIF and FeSSIF compared with freeform: within 1 hour
Summary of the method: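 Solids (~1 mg/mL loading as freeform) rolled at 25 rpm, 37° C in water, SGF (pH 1.8), FaSSIF (pH 6.5) or FeSSIF (pH 5.0). Sampled at 1, 4 and 24 h, centrifuged and filtered (0.45 μm PTFE). Supernatant concentration by HPLC, with pH measured; residual solids checked by XRPD.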

[2] = Solid stability evaluation (II/II), HPLC in triplicate
Protocol: The chemical stability of 1:1 Compound II Citrate Salt (Form A) and 1:1 Compound II Tris Salt (Form B) was further evaluated at solid state, samples were stored under the ambient condition or 40° C./75% RH for 1 day and 3 days, respectively.

[3] = Solid stability evaluation (I/II), XRPD and HPLC; settings: for Chemical stability compared with free form: 60° C. 1 day, 25° C./60% RH or 40° C./75% RH 1 week
Summary of the method: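 Tris salt Form A and amorphous free form of Compound I, and Compound II citrate salt Form A, Tris salt Form B and free form, stored as solids at 60° C. for 1 day and at 25° C./60% RH or 40° C./75% RH for 1 week. Physical form checked by XRPD and chemical stability by HPLC.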

[4] = Hygroscopicity, DVS test; settings: 25° C.; for Hygroscopicity: according to Chinese Pharmacopeia 2015
Protocol: DVS was measured via a SMS (Surface Measurement Systems) DVS Intrinsic. The relative humidity at 25° C. were calibrated against deliquescence point of LiCl, Mg(NO3)2 and KCl.
To investigate the solid form stability as a function of humidity, DVS isotherm plot of 1:1 Compound I Tris Salt (Form A) was collected between 0% RH and 95% RH at 25° C. […] Considering the 1:1 Compound I Tris Salt (Form A) is a hydrate and may dehydrate under low humidity, DVS was also tested at 20 and 30° C. to further confirm the suitable storage condition and avoid dehydration. […] Combing the VH-XRPD and DVS results: the condition of 20-30° C. and relative humidity ≥40% RH is suitable for the storage of 1:1 Compound I Tris Salt (Form A).
To investigate the solid form stability as a function of humidity, DVS isotherm plots of 1:1 Compound II Citrate Salt (Form A) and 1:1 Compound II Tris Salt (Form B) were collected at 25° C. between 0% RH and 95% RH. […] The water uptake increased by 0.97% from 10% to 80% RH and a platform was observed.

[5] = Ambient condition (open), 1 day
[6] = Ambient condition (open), 3 days

N#Cc1ccc(COc2cccc(C3=CCN(Cc4nc5ccc(C(=O)O)cc5n4C[C@@H]4CCO4)CC3)n2)c(F)c1 [Tris salt Form B, (S)-2-((6-((4-cyano-2-fluorobenzyl)oxy)-3′,6′-dihydro-[2,4′-bipyridin]-1′(2′H)-yl)methyl)-1-(oxetan-2-ylmethyl)-1H-benzo[d]imidazole-6-carboxylic acid]
S: solubility ([1]; FaSSIF, 1 hour): 70 µg/mL | Purity (%), area percentage of API ([1]; FaSSIF, 1 hour): 72.58% | S: solubility ([1]; FaSSIF, 4 hours): 50 µg/mL | Purity (%), area percentage of API ([1]; FaSSIF, 4 hours): 59.86% | S: solubility ([1]; FaSSIF, 24 hours): 100 µg/mL | Purity (%), area percentage of API ([1]; FaSSIF, 24 hours): 72.13% | S: solubility ([1]; FeSSIF, 1 hour): 200 µg/mL | Purity (%), area percentage of API ([1]; FeSSIF, 1 hour): 98.18% | S: solubility ([1]; FeSSIF, 4 hours): 300 µg/mL | Purity (%), area percentage of API ([1]; FeSSIF, 4 hours): 93.37% | S: solubility ([1]; FeSSIF, 24 hours): 300 µg/mL | Purity (%), area percentage of API ([1]; FeSSIF, 24 hours): 80.52% | S: solubility ([1]; H2O, 1 hour): 400 µg/mL | Purity (%), area percentage of API ([1]; H2O, 1 hour): 93.07% | S: solubility ([1]; H2O, 4 hours): 900 µg/mL | Purity (%), area percentage of API ([1]; H2O, 4 hours): 93.13% | S: solubility ([1]; H2O, 24 hours): 600 µg/mL | Purity (%), area percentage of API ([1]; H2O, 24 hours): 92.03% | Solubility in H2O, comparison in words ([1]; H2O, compared with the other tested materials): better solubility | S: solubility ([1]; SGF, 1 hour): 600 µg/mL | Purity (%), area percentage of API ([1]; SGF, 1 hour): 93.44% | S: solubility ([1]; SGF, 4 hours): 200 µg/mL | Purity (%), area percentage of API ([1]; SGF, 4 hours): 84.69% | S: solubility ([1]; SGF, 24 hours): 200 µg/mL | Purity (%), area percentage of API ([1]; SGF, 24 hours): 82.04% | FC: form change ([1]; FaSSIF, 4 hours): Yes | FC: form change ([1]; FaSSIF, 24 hours): Yes | FC: form change ([1]; FeSSIF, 1 hour): No | FC: form change ([1]; FeSSIF, 4 hours): Yes | FC: form change ([1]; FeSSIF, 24 hours): Yes | FC: form change ([1]; H2O, 1 hour): No | FC: form change ([1]; H2O, 4 hours): Yes | FC: form change ([1]; H2O, 24 hours): Yes | FC: form change ([1]; SGF, 1 hour): Yes | FC: form change ([1]; SGF, 4 hours): Yes | FC: form change ([1]; SGF, 24 hours): Yes | pH ([1]; FaSSIF, 1 hour): 6.6 | pH ([1]; FaSSIF, 4 hours): 6.6 | pH ([1]; FaSSIF, 24 hours): 6.5 | pH ([1]; FeSSIF, 1 hour): 5.1 | pH ([1]; FeSSIF, 4 hours): 5.1 | pH ([1]; FeSSIF, 24 hours): 5.0 | pH ([1]; H2O, 1 hour): 7.6 | pH ([1]; H2O, 4 hours): 7.8 | pH ([1]; H2O, 24 hours): 7.9 | pH ([1]; SGF, 1 hour): 1.9 | pH ([1]; SGF, 4 hours): 2.0 | pH ([1]; SGF, 24 hours): 2.0 | Solubility in SGF, FaSSIF and FeSSIF compared with freeform [1]: higher than that of freeform | Ave. Purity (area %) ([2]; 40° C./75% RH (open), 1 day): 94.5 area % | Ave. Purity (area %) ([2]; 40° C./75% RH (open), 3 days): 94.8 area % | Ave. Purity (area %) [2, 5]: 94.4 area % | Ave. Purity (area %) [2, 6]: 94.2 area % | Ave. Purity (area %) ([2]; Initial): 95.5 area % | Form change ([3]; 25° C./60% RH (open), 1 week): No | Observation ([3]; 25° C./60% RH (open), 1 week): Yellow | Purity (area %) ([3]; 25° C./60% RH (open), 1 week): 93.86 area % | Form change ([3]; 40° C./75% RH (open), 1 week): No | Observation ([3]; 40° C./75% RH (open), 1 week): Yellow | Purity (area %) ([3]; 40° C./75% RH (open), 1 week): 94.13 area % | Chemical stability compared with free form [3]: better chemical stability | Form change ([3]; 60° C. (capped), 1 day): No | Observation ([3]; 60° C. (capped), 1 day): Yellow | Purity (area %) ([3]; 60° C. (capped), 1 day): 92.98 area % | Form change ([3]; Initial): No | Observation ([3]; Initial): Yellowish | Purity (area %) ([3]; Initial): 94.56 area % | Form change after DVS test [4]: No | Hygroscopicity [4]: Slightly hygroscopic | Water uptake increase between 0% and 10% RH ([4]; cycle 2 sorption curve): 2.47% | Water uptake from 10% RH to 80% RH [4]: 0.97%* | Water uptake from 10% RH to 80% RH ([4]; listed as 1:1 Compound II Tris Salt (Form B)): 0.97%

N#Cc1ccc(COc2cccc(C3=CCN(Cc4nc5ccc(C(=O)O)cc5n4C[C@@H]4CCO4)CC3)n2)c(F)c1 [Citrate salt Form A, (S)-2-((6-((4-cyano-2-fluorobenzyl)oxy)-3′,6′-dihydro-[2,4′-bipyridin]-1′(2′H)-yl)methyl)-1-(oxetan-2-ylmethyl)-1H-benzo[d]imidazole-6-carboxylic acid]
S: solubility ([1]; FaSSIF, 1 hour): 100 µg/mL | Purity (%), area percentage of API ([1]; FaSSIF, 1 hour): 94.86% | S: solubility ([1]; FaSSIF, 4 hours): 20 µg/mL | Purity (%), area percentage of API ([1]; FaSSIF, 4 hours): 76.06% | S: solubility ([1]; FaSSIF, 24 hours): 9 µg/mL | Purity (%), area percentage of API ([1]; FaSSIF, 24 hours): 61.96% | S: solubility ([1]; FeSSIF, 1 hour): 200 µg/mL | Purity (%), area percentage of API ([1]; FeSSIF, 1 hour): 98.94% | S: solubility ([1]; FeSSIF, 4 hours): 300 µg/mL | Purity (%), area percentage of API ([1]; FeSSIF, 4 hours): 95.25% | S: solubility ([1]; FeSSIF, 24 hours): 90 µg/mL | Purity (%), area percentage of API ([1]; FeSSIF, 24 hours): 79.88% | S: solubility ([1]; H2O, 1 hour): 20 µg/mL | Purity (%), area percentage of API ([1]; H2O, 1 hour): 100.00% | S: solubility ([1]; H2O, 4 hours): 20 µg/mL | Purity (%), area percentage of API ([1]; H2O, 4 hours): 91.26% | S: solubility ([1]; H2O, 24 hours): 50 µg/mL | Purity (%), area percentage of API ([1]; H2O, 24 hours): 86.05% | S: solubility ([1]; SGF, 1 hour): 500 µg/mL | Purity (%), area percentage of API ([1]; SGF, 1 hour): 96.79% | S: solubility ([1]; SGF, 4 hours): 80 µg/mL | Purity (%), area percentage of API ([1]; SGF, 4 hours): 91.83% | S: solubility ([1]; SGF, 24 hours): 60 µg/mL | Purity (%), area percentage of API ([1]; SGF, 24 hours): 90.59% | FC: form change ([1]; FaSSIF, 1 hour): No | FC: form change ([1]; FaSSIF, 4 hours): No | FC: form change ([1]; FaSSIF, 24 hours): Yes | FC: form change ([1]; FeSSIF, 1 hour): No | FC: form change ([1]; FeSSIF, 24 hours): Yes | FC: form change ([1]; H2O, 1 hour): No | FC: form change ([1]; H2O, 4 hours): No | FC: form change ([1]; H2O, 24 hours): No | FC: form change ([1]; SGF, 1 hour): Yes | FC: form change ([1]; SGF, 4 hours): Yes | FC: form change ([1]; SGF, 24 hours): Yes | pH ([1]; FaSSIF, 1 hour): 6.3 | pH ([1]; FaSSIF, 4 hours): 6.3 | pH ([1]; FaSSIF, 24 hours): 6.0 | pH ([1]; FeSSIF, 1 hour): 5.0 | pH ([1]; FeSSIF, 4 hours): 5.0 | pH ([1]; FeSSIF, 24 hours): 4.9 | pH ([1]; H2O, 1 hour): 4.8 | pH ([1]; H2O, 4 hours): 4.2 | pH ([1]; H2O, 24 hours): 3.4 | pH ([1]; SGF, 1 hour): 1.9 | pH ([1]; SGF, 4 hours): 1.9 | pH ([1]; SGF, 24 hours): 1.9 | Solubility in SGF, FaSSIF and FeSSIF compared with freeform [1]: higher than that of freeform | Ave. Purity (area %) ([2]; 40° C./75% RH (open), 1 day): 97.8 area % | Ave. Purity (area %) ([2]; 40° C./75% RH (open), 3 days): 97.9 area % | Ave. Purity (area %) [2, 5]: 97.8 area % | Ave. Purity (area %) [2, 6]: 97.8 area % | Ave. Purity (area %) ([2]; Initial): 97.9 area % | Form change ([3]; 25° C./60% RH (open), 1 week): No | Observation ([3]; 25° C./60% RH (open), 1 week): White | Purity (area %) ([3]; 25° C./60% RH (open), 1 week): 97.58 area % | Form change ([3]; 40° C./75% RH (open), 1 week): No | Observation ([3]; 40° C./75% RH (open), 1 week): White | Purity (area %) ([3]; 40° C./75% RH (open), 1 week): 97.14 area % | Chemical stability compared with free form [3]: better chemical stability | Form change ([3]; 60° C. (capped), 1 day): No | Observation ([3]; 60° C. (capped), 1 day): White | Purity (area %) ([3]; 60° C. (capped), 1 day): 97.50 area % | Form change ([3]; Initial): No | Observation ([3]; Initial): White | Purity (area %) ([3]; Initial): 97.73 area % | Form change after DVS test [4]: No | Water uptake (80% RH) [4]: 0.71% | Water uptake (80% RH) ([4]; listed as 1:1 Compound II Citrate Salt (Form A)): 0.71% | Hygroscopicity [4]: Slightly hygroscopic
